Consider 30 compounds from patent US11518764B2, “Substituted heteroaryls as inhibitors of the BCL6 BTB domain protein-protein interaction” (Ontario Institute for Cancer Research (OICR), priority 2018, dated 2022).

Where two headings read alike, the source gives them in different places.

One test has as its target BCL6 BTB domain (Homo sapiens (Human), UniProt P41182). The test is described as follows: Surface plasmon resonance (SPR) assay. Particulars: BCL6 BTB domain captured on SA chip, single cycle kinetics. It is filed as binding. For orientation: Surface plasmon resonance follows binding to a sensor surface in real time, without labels.
The test system of test [1] is BCL6 reporter construct (3xBCL6-TK-Luc) in SuDHL4 cells. The test is described as follows: Cell-based luciferase assay. On the procedure: Cell-Based Luciferase Assay
A BCL6 reporter construct containing three copies of the consensus BCL6 binding site, the TK promoter, and the firefly luciferase gene was stably expressed in SuDHL4 cells after lentivirus infection and selection with Blasticidin. SuDHL4-3×BCL6-TK-Luc cells were seeded into a Viewplate 384-well assay dish at 15,000 cells/well in 25 ul medium (Alpha-MEM high glucose containing 10% FBS, 25 mM HEPES, […] GlutaMAX, 100 ug/ml Normocin, and […] Gentamycin, Invitrogen). A HP D300 digital dispenser was used to dose cells with DMSO or test compounds across a 10-point range of concentrations (high dose of 10 uM), and cultures were grown in a humidified 5% CO2 incubator at 37° C. After two days, plates were removed from the incubator and equilibrated to room temperature. An equal volume of neolite reporter gene assay reagent was added to each well, and samples were processed according to manufacturer's instructions (Perkin Elmer). Luminescent signal was measured using an Envision plate reader equipped with a US-Luminescence detector.

For a further test, the system named is Karpas422 cells. The test is described as follows: Tumor cell growth inhibition assay. It is filed as cell-based. On the procedure: Tumor Cell Growth inhibition Assay
Karpas422 cells were seeded into a 96-well plate at 2,000 cells/well in 150 ul medium (Alpha-MEM containing 10% FBS, […] Normocin, and […] Gentamycin, Invitrogen). A HP D300 digital dispenser was used to dose cells with DMSO or test compounds across a 10-point range of concentrations (high dose of 5 uM), and cultures were grown in a humidified 5% CO2 incubator at 37° C. After six days, plates were removed from incubator and equilibrated to room temperature. An equal volume of ATPlite assay reagent was added to each well, and samples were processed according to manufacturer's instructions (Perkin Elmer). Luminescent signal was measured using an Envision plate reader equipped with a US-Luminescence detector.

[2] abbreviates: Homo sapiens, SU-DHL-4, 48 h, read-out: Luciferase-Assay EC50, uM), SuDHL4-3xBCL6-TK-Luc cells, two days, high dose 10 uM.
[3] abbreviates: Homo sapiens, KARPAS-422, 144 h, read-out: Tumor Growth Inhibition in Karpas-422 (IC50, uM), Karpas422 cells, six days, ATPlite.
Where [4] appears, read: read-out: Tumor Growth Inhibition in Karpas-422 (IC50), Karpas422 cells, six days, ATPlite.

One may read the Kd as the constant that tells how readily two partners part at equilibrium. What is called EC50 is the concentration needed to bring the measured effect to its halfway point. For orientation: IC50 means the point on the concentration scale where inhibition reaches its midpoint. Compound `Cc1cc(-c2cn(CC(=O)Nc3cc(N4CCOCC4)ncc3Cl)c3ncn(C)c(=O)c23)cc(C(N)=O)c1O` [Compound I-4, 5-(7-(2-((5-chloro-2-morpholinopyridin-4-yl)amino)-2-oxoethyl)-3-methyl-4-oxo-4,7-dihydro-3H-pyrrolo[2,3-d]pyrimidin-5-yl)-2-hydroxy-3-methylbenzamide] gave a Kd on BCL6 BTB domain of 279 nM. For the same compound, the EC50 in test [1] (setting [2]) is 1.8 µM. In addition, the IC50 in the test on Karpas422 cells (setting [3]) came out at 0.525 µM.

The compound `C[C@@H]1CN(c2cc(NC(=O)Cn3cc(-c4cc(Cl)c(O)c(C(N)=O)c4)c4c(=O)n(C)cnc43)c(Cl)cn2)C[C@H](C)O1` [Compound I-13] came in with a Kd at BCL6 BTB domain of 22 nM. Besides, in test [1] (setting [2]), the EC50 is 0.17 µM. Also, the IC50 in the test with Karpas422 cells (setting [3]) came out at 0.18 µM.

As for `C[C@H]1COCCN1c1cc(NC(=O)Cn2cc(-c3cc(Cl)c(O)c(C(N)=O)c3)c3c(=O)n(C)cnc32)c(Cl)cn1` [Compound I-35], the IC50 with Karpas422 cells (setting [4]) was 0.133 µM. For the compound `Cn1cnc2c(c(-c3cc(Cl)c(O)c(C(N)=O)c3)cn2CC(=O)Nc2cc(N3CCC(F)C3)ncc2Cl)c1=O` (centres unmarked) [Compound I-67], the Kd at BCL6 BTB domain was 14 nM. In addition, the EC50 in test [1] (setting [2]) was found to be 0.296 µM. For the same compound, in the test with Karpas422 cells (setting [3]), the IC50 stood at 0.267 µM. Regarding `Cn1cnc2c(c(-c3cc(Cl)c(O)c(C(N)=O)c3)cn2CC(=O)Nc2cc(N3CCOC(C(F)(F)F)C3)ncc2Cl)c1=O` (centres unmarked) [Compound I-69], the Kd on BCL6 BTB domain was 72 nM. For the same compound, in test [1] (read-out: Luciferase-Assay EC50, SuDHL4-3xBCL6-TK-Luc cells, two days, high dose 10 uM), the EC50 worked out at 0.269 µM. In the test with Karpas422 cells (setting [4]), the IC50 amounted to 0.22 µM. At BCL6 BTB domain, `C[C@@H]1CN(CCN(C)c2cc(NC(=O)Cn3cc(-c4cc(Cl)c(O)c(C(N)=O)c4)c4c(=O)n(C)cnc43)c(Cl)cn2)C[C@H](C)O1` [Compound I-73] yielded a Kd of 19 nM. The EC50 in test [1] (setting [2]) turned out to be 0.233 µM. The IC50 in the test on Karpas422 cells (setting [3]) came to 0.165 µM.

`Cn1cnc2c(c(-c3cc(C(N)=O)c(O)cn3)cn2CC(=O)Nc2cc(N3CCOCC3)ncc2Cl)c1=O` [Compound I-143, 2-(7-(2-((5-chloro-2-morpholinopyridin-4-yl)amino)-2-oxoethyl)-3-methyl-4-oxo-4,7-dihydro-3H-pyrrolo[2,3-d]pyrimidin-5-yl)-5-hydroxyisonicotinamide] registered a Kd on BCL6 BTB domain of 250 nM. For the same compound, the EC50 in test [1] (setting [2]) is 6.2 µM. Consider `CCOc1cc(-c2cn(CC(=O)Nc3cc(N4CCOC[C@@H]4C)ncc3Cl)c3ncn(C)c(=O)c23)cc(C(N)=O)c1O` [Compound I-144], for which the EC50 in test [1] (setting [2]) stood at 10 µM. Besides, in the test with Karpas422 cells (setting [3]), the IC50 is 10 µM.

On BCL6 BTB domain, `Cn1cnc2c(c(-c3cc(Cl)c(O)c(C(N)=O)c3)cn2CC(=O)Nc2cc(N3CCn4cc(C(F)(F)F)nc4C3)ncc2Cl)c1=O` [Compound I-165] showed a Kd of 14.9 nM. Moreover, the EC50 in test [1] (setting [2]) was determined as 0.466 µM.

On BCL6 BTB domain, `CN1CCN(c2ccc(Cl)c(NC(=O)Cn3cc(-c4cc(Cl)c(O)c(C(N)=O)c4)c4c(=O)n(C)cnc43)n2)CC1` [Compound I-175] registered a Kd of 429 nM. Besides, the IC50 in the test with Karpas422 cells (setting [3]) was 4.79 µM. Take `C[C@H]1CN(C)CCN1c1cc(NC(=O)Cn2cc(-c3cc(F)c(O)c(C(N)=O)c3)c3c(=O)n(C)c(C(F)(F)F)nc32)c(Cl)cn1` [Compound I-233]: the Kd at BCL6 BTB domain was found to be 23.7 nM. Besides, the EC50 in test [1] (setting [2]) worked out at 0.161 µM. On to `C[C@H]1COCCN1c1cc(NC(=O)Cn2cc(-c3cc(Cl)c(O)c(C(N)=O)c3)c3c(=O)n(C)cnc32)c(Cl)cn1` [Compound I-239], for which, in the test with Karpas422 cells (setting [4]), the IC50 came out at 0.316 µM.

Consider `C[C@H]1CN(CC(F)(F)F)CCN1c1cc(NC(=O)Cn2cc(-c3cc(Cl)c(O)c(C(N)=O)c3)c3c(=O)n(C)c(C(F)(F)F)nc32)c(Cl)cn1` [Compound I-253], for which the Kd on BCL6 BTB domain was found to be 2100 nM. The same measure, in the same setting: with `Cn1cnc2c(c(-c3cc(Cl)c(O)c(C(N)=O)c3)cn2CC(=O)N[C@@H]2CCCC[C@H]2OC(=O)C(F)(F)F)c1=O` [Compound I-254, (1R,2R)-2-(2-(5-(3-carbamoyl-5-chloro-4-hydroxyphenyl)-3-methyl-4-oxo-3,4-dihydro-7H-pyrrolo[2,3-d]pyrimidin-7-yl)acetamido)cyclohexyl 2,2,2-trifluoroacetate] the figure was 3880 nM; with `Cn1cnc2c(c(-c3cc(Cl)c(O)c(C(N)=O)c3)cn2CC(=O)NC2CCCc3ccncc32)c1=O` (centres unmarked) [Compound I-255], 6110 nM; with `Cn1cnc2c(c(-c3cc(Cl)c(O)c(C(N)=O)c3)cn2CC(=O)NC2CCCc3ncccc32)c1=O` (centres unmarked) [Compound I-257], 3640 nM. Turning to `C[C@H]1COCCN1c1cc(NC(=O)Cn2cc(-c3cc(Cl)c(O)c(C(N)=O)c3)c3c(=O)n(C)c(N(C)C)nc32)c(Cl)cn1` [Compound I-263, (S)-3-chloro-5-(7-(2-((5-chloro-2-(3-methylmorpholino)pyridin-4-yl)amino)-2-oxoethyl)-2-(dimethylamino)-3-methyl-4-oxo-4,7-dihydro-3H-pyrrolo[2,3-d]pyrimidin-5-yl)-2-hydroxybenzamide], in test [1] (setting [2]), the EC50 was 2.07 µM. For the same compound, in the test with Karpas422 cells (setting [3]), the IC50 was found to be 0.745 µM. For `COc1c(O)c(C(N)=O)cc(-c2cn(CC(=O)Nc3cc(N4CCN(C)C[C@@H]4C)ncc3Cl)c3nc(C(F)(F)F)n(C)c(=O)c23)c1F` [Compound I-266], in that order: 1.61 µM and 2.78 µM. Take `CNc1nc2c(c(-c3cc(Cl)c(O)c(C(N)=O)c3)cn2CC(=O)Nc2cc(N3CCOC[C@@H]3C)ncc2Cl)c(=O)n1C` [Compound I-268, (S)-3-chloro-5-(7-(2-((5-chloro-2-(3-methylmorpholino)pyridin-4-yl)amino)-2-oxoethyl)-3-methyl-2-(methylamino)-4-oxo-4,7-dihydro-3H-pyrrolo[2,3-d]pyrimidin-5-yl)-2-hydroxybenzamide]: the EC50 in test [1] (setting [2]) was 1.8 µM. Moreover, the IC50 in the test with Karpas422 cells (setting [3]) turned out to be 1.86 µM.

In the case of `CN(C)c1cc(NC(=O)Cn2cc(-c3cc(Cl)c(O)c(C(N)=O)c3)c3c(=O)n(C)c(Nc4cc(N(C)C)ncc4Cl)nc32)c(Cl)cn1` [Compound I-291, 3-chloro-5-(2-((5-chloro-2-(dimethylamino)pyridin-4-yl)amino)-7-(2-((5-chloro-2-(dimethylamino)pyridin-4-yl)amino)-2-oxoethyl)-3-methyl-4-oxo-4,7-dihydro-3H-pyrrolo[2,3-d]pyrimidin-5-yl)-2-hydroxybenzamide], in test [1] (setting [2]), the half-maximal effective concentration (EC50) stood at 1.76 µM. For the same compound, in the test on Karpas422 cells (setting [3]), the IC50 came to 0.908 µM.

Turning to `C[C@H]1CN(CC2CC2)CCN1c1cc(NC(=O)Cn2cc(-c3cc(C(N)=O)c(O)c(F)c3F)c3c(=O)n(C)cnc32)c(Cl)cn1` [Compound I-307], the EC50 in test [1] (setting [2]) is 0.464 µM. Moreover, in the test with Karpas422 cells (setting [3]), the IC50 was 0.676 µM. For `Cc1nc2c(c(-c3cc(Cl)c(O)c(C(N)=O)c3)cn2CC(=O)Nc2cc(N3CCN(C4COC4)C[C@@H]3C)ncc2Cl)c(=O)n1C` [Compound I-336] the same measures were 0.0383 µM and 0.0502 µM. For `Cc1nc2c(c(-c3cc(Cl)c(O)c(C(N)=O)c3)cn2CC(=O)Nc2ccncc2Br)c(=O)n1C` [Compound I-337] the same measures were 1.55 µM and 1.93 µM. For `Cc1nc2c(c(-c3cc(Cl)c(O)c(C(N)=O)c3)cn2CC(=O)Nc2cc(N3CCN(CC4CC4)C[C@@H]3C)ncc2Cl)c(=O)n1C` [Compound I-338] the same measures were 0.163 µM and 0.231 µM. Consider `Cc1nc2c(c(-c3cc(C(N)=O)c(O)c(F)c3F)cn2CC(=O)Nc2cc(N3CCN(CC4CC4)C[C@@H]3C)ncc2Cl)c(=O)n1C` [Compound I-339], for which the EC50 in test [1] (setting [2]) came to 0.454 µM. Besides, the IC50 in the test with Karpas422 cells (setting [3]) came to 0.237 µM. For `[2H]C1(C([2H])([2H])N2CCN(c3cc(NC(=O)Cn4cc(-c5cc(C(N)=O)c(O)c(F)c5F)c5c(=O)n(C)cnc54)c(Cl)cn3)[C@@H](C)C2)CC1` [Compound I-370], in that order: 0.61 µM and 1.31 µM.

On BCL6 BTB domain, `CN1CC2CC(C1)N2c1cc(NC(=O)Cn2cc(-c3cc(F)c(O)c(C(N)=O)c3)c3c(=O)n(C)cnc32)c(Cl)cn1` [Compound I-450] yielded a Kd of 43.6 nM. Still for that read-out and setting: with `CN1CC2CC(C1)N2c1cc(NC(=O)Cn2cc(-c3cc(C(N)=O)c(O)c(F)c3F)c3c(=O)n(C)cnc32)c(Cl)cn1` [Compound I-451] the figure was 157 nM. The same measure, in the same setting: for `CN1CCC2(C1)CN(c1cc(NC(=O)Cn3cc(-c4cc(C(N)=O)c(O)c(F)c4F)c4c(=O)n(C)cnc43)c(Cl)cn1)C2` [Compound I-485] the value was 805 nM. Turning to “(S)-3-chloro-5-(7-(2-((5-chloro-2-(3-methylmorpholino)pyridin-4-yl)amino)-2-oxoethyl)-3-methyl-4-oxo-2-phenyl-4,7-dihydro-3H-pyrrolo[2,3-d]pyrimidin-5-yl)-2-hydroxybenzamide [Compound I-247]”, in test [1] (SuDHL4-3xBCL6-TK-Luc cells, two days, high dose 10 uM, read-out: Luciferase-Assay EC50), the EC50 was determined as 15.2 µM. For the same compound, the IC50 in the test on Karpas422 cells (Karpas422 cells, six days, ATPlite, read-out: Tumor Growth Inhibition in Karpas-422 (IC50)) is 0.628 µM.
